Here are results for eight molecules from patent US5294603A, “Pharmaceutical compositions containing didemnins” (The Board of Trustees of The University of Illinois, priority 1992, dated 1994).

In data set [1] the test system is L1210 murine leukemia cells. As to conditions: Table 9.
The subject of data set [2] is Nb2 cells, rat T-cell node lymphoma. Briefly: Competitive binding with [3H]didemnin B to Nb2 cells. Particulars: 3 h at 37° C. The method, then:
The immunosuppressive assay was performed by measuring competitive binding of tested compounds with [^3 H]didemnin B to Nb2 cells, rat T-cell node lymphoma. See, Russell, D. H., et al., J. Immunology, 1987, 138, 276-284.
^a Competing didemnins incubated with approximately 25 ng of [^3

In data set [3] the test system is cells of the VIV assay (not named).
The test system of a further data set is Visna virus (VIV). Format: cell-based. The arrangement: key to % Protection / VIV Protection: I, indeterminate.
The test system of data set [4] is BHK = Baby hamster kidney cells.
Data set [5] relates to DNA synthesis in Nb2 node lymphoma cells. Nature of the data set: Inhibition of ongoing DNA synthesis in prolactin-stimulated Nb2 cells. Type of data set: cell-based, rat. Particulars: Nb2 cells stimulated with prolactin for 24 h. The method, then:
Also inhibitions of protein and DNA synthesis of several compounds were measured using Nb2 node lymphoma cells which were stimulated by a treatment of cells with prolactin. (ibid.)
^a Nb2 cells were stimulated with prolactin for 24 h, then exposed to
^b 50% Inhibitory concentration, calculated with linear regression

In another data set the test system is HSV-1. Type of data set: cell-based, Herpes simplex virus Type I.
The test system of a further data set is VSV. Format: cell-based, vesicular stomatitis virus.

Molecules are shown by their SMILES. Values after ≈ are worked out from the molar mass of the structure shown. Where two headings read alike, the source gives them in different places. Numbered stars: 1 amine (or outer) side, 2 acyl side, 3 side chain; on linkers, the order of the positions; unused ones are H or OH. Bridge positions count the residues as written; N and C are the ends. Square brackets hold non-standard residues; d marks the D form. Peptide text beside a SMILES is read from it. * marks the point of attachment. X4 = CC[C@H](C)[C@@H](N[*:1])[C@@H](O)CC(=O)O[C@@H](C(=O)[C@H](C)C(=O)[*:2])C(C)C; X7 = CC[C@H](C)[C@@H](N[*:1])[C@@H](O)CC(=O)O[C@H](C(=NO)[C@H](C)C(=O)[*:2])C(C)C; X1 = CC[C@H](C)[C@@H](N[*:1])[C@@H](O)CC(=O)O[C@H](C(=O)[C@H](C)C(=O)[*:2])C(C)C; X3 = CC[C@H](C)[C@H](N[*:1])[C@@H](O)CC(=O)O[C@H](C(=O)[C@H](C)C(=O)[*:2])C(C)C; NMeY = CN[C@@H](Cc1ccc(O)cc1)C(=O)O; aThr = C[C@H](O)[C@H](N)C(=O)O; dNMeL = CN[C@H](CC(C)C)C(=O)O; Isobutyryl = CC(C)C(=O)*; Pyruvoyl = CC(=O)C(=O)*; Propionyl = CCC(=O)*

For the molecule `CCC(=O)N(C)[C@H](CC(C)C)C(=O)N[C@@H]1C(=O)N[C@H]([C@@H](C)CC)[C@@H](O)CC(=O)O[C@@H](C(C)C)C(=O)[C@H](C)C(=O)N[C@@H](CC(C)C)C(=O)N2CCC[C@H]2C(=O)N(C)[C@@H](Cc2ccc(OC)cc2)C(=O)O[C@@H]1C` [(N-Propionyl)Didemnin A (98), N-propionyl-didemnin A] (Propionyl-[dNMeL]T[X1]LP[NMeY](Me); ester 2-C), the “Cytotoxicity L1210 IC50” value in [1] amounted to 0.0003 µg/mL. Further, the “Inhibition of [3H]didemnin B binding (%)” value in [2] (0.001 μg/mL) worked out at 3%; in data set [2] (0.01 μg/mL), 2%; in data set [2] (0.1 μg/mL), 40%; in [2] (1 μg/mL), 72%. The “VIV Toxicity” value in data set [3] worked out at 92. The “VIV Protection” value with Visna virus (VIV) is listed as “I”. In addition, the “cytotoxicity (result in words)” value with L1210 (Table 1 footnote and text) is recorded as “retained the cytotoxicity of didemnin B”. The “Cytotoxicity percent L1210 inhibition” value with L1210 (dose 5 ng/mL) came out at 93%; with L1210 (dose 12.5 ng/mL), 95%; with L1210 (dose 25 ng/mL), 95%. In [4], the BHK is listed as 0, PT.
Regarding `CC[C@H](C)[C@H]1NC(=O)[C@@H](NC(=O)[C@@H](CC(C)C)N(C)C(=O)[C@@H]2CCCN2C(=O)[C@H](C)O)[C@@H](C)OC(=O)[C@H](Cc2ccc(O)cc2)NC(=O)[C@@H]2CCCN2C(=O)[C@H](CC(C)C)NC(=O)[C@@H](C)C(=O)[C@H](C(C)C)OC(=O)C[C@@H]1O` [Didemnin N (13), Didemnin N], in data set [1], the “Cytotoxicity L1210 IC50” value amounted to 0.03 µg/mL. For the same molecule, in the data set with CV-1 monkey kidney cells, the CV-1 is 0. For the same molecule, the “Inhibition of [3H]didemnin B binding (%)” value in data set [2] (0.001 μg/mL) was determined as 3%; in [2] (0.01 μg/mL), 6%; in data set [2] (0.1 μg/mL), 4%; in data set [2] (1 μg/mL) it was 10%. In data set [5], the “IC50 DNA” value is reported as 200,000 ng/mL.
For the molecule `CC[C@H](C)[C@H]1NC(=O)[C@@H](NC(=O)[C@@H](CC(C)C)N(C)C(=O)[C@@H]2CCCN2C(=O)C(C)C)[C@@H](C)OC(=O)[C@H](Cc2ccc(OC)cc2)N(C)C(=O)[C@@H]2CCCN2C(=O)[C@H](CC(C)C)NC(=O)[C@@H](C)C(=O)[C@H](C(C)C)OC(=O)C[C@@H]1O` [[Isobutyryl^9]didemnin B] (Isobutyryl-P[dNMeL]T[X1]LP[NMeY](Me); ester 3-C), the HSV-1 result with HSV-1 is “++ +”. Further, the “Cytotoxicity L1210 IC50” value in data set [1] came to 0.0002 µg/mL. For the same molecule, the “Inhibition of [3H]didemnin B binding (%)” value was 2% in data set [2] (0.001 μg/mL), 4% in [2] (0.01 μg/mL), 59% in data set [2] (0.1 μg/mL) and 75% in [2] (1 μg/mL). For the same molecule, the “VIV Protection” value with Visna virus (VIV) is reported as -93. For the same molecule, the BHK in [4] was 0, PT.
`CC[C@H](C)[C@@H]1NC(=O)[C@@H](NC(=O)[C@@H](CC(C)C)N(C)C(C)=O)[C@H](C)OC(=O)[C@H](Cc2ccc(OC)cc2)N(C)C(=O)[C@@H]2CCCN2C(=O)[C@H](CC(C)C)NC(=O)[C@@H](C)C(=O)[C@H](C(C)C)OC(=O)C[C@@H]1O` [N-Acetyldidemnin A (54), N-Acetyl didemnin A] (Ac-[dNMeL][aThr][X3]LP[NMeY](Me); ester 2-C): the “Cytotoxicity L1210 IC50” value in data set [1] stood at 0.0003 µg/mL. In addition, the “Inhibition of [3H]didemnin B binding (%)” value in data set [2] (0.001 μg/mL) turned out to be 2%; in [2] (0.01 μg/mL) it was 12%; in [2] (0.1 μg/mL), 72%; in data set [2] (1 μg/mL), 80%. For the same molecule, the “VIV Toxicity” value in data set [3] is 94. The “IC50 DNA” value in [5] stood at 70 ng/mL (≈ 71 nM). Moreover, in the data set on Visna virus (VIV), the “VIV Protection” value is listed as “I”. Also, the “Cytotoxicity percent L1210 inhibition” value is 89% with L1210 (dose 5 ng/mL), 93% with L1210 (dose 12.5 ng/mL) and 94% with L1210 (dose 25 ng/mL).
In the case of `CC[C@H](C)[C@H]1NC(=O)[C@@H](NC(=O)[C@@H](CC(C)C)NC)[C@@H](C)OC(=O)[C@H](Cc2ccc(OC)cc2)N(C)C(=O)[C@@H]2CCCN2C(=O)[C@H](CC(C)C)NC(=O)[C@@H](C)[C@@H](O)[C@H](C(C)C)OC(=O)C[C@@H]1OC(C)=O` [O-Acetyl-[H2-(2S,3R,4S)Hip^2]didemnin A], the “Cytotoxicity L1210 IC50” value in data set [1] was 1 µg/mL. Also, in the data set with CV-1 monkey kidney cells, the CV-1 was determined as 0. Besides, the “Inhibition of [3H]didemnin B binding (%)” value in data set [2] (0.001 μg/mL) turned out to be 0%; in [2] (0.01 μg/mL), 0%; in [2] (0.1 μg/mL) it was 2%; in data set [2] (1 μg/mL), 19%.
For the molecule `CC[C@H](C)[C@H]1NC(=O)[C@@H](NC(=O)[C@@H](CC(C)C)NC)[C@@H](C)OC(=O)[C@H](Cc2ccc(OC)cc2)N(C)C(=O)[C@@H]2CCCN2C(=O)[C@H](CC(C)C)NC(=O)[C@@H](C)C(=O)[C@@H](C(C)C)OC(=O)C[C@@H]1O` [Epididemnin A (15), Epididemnin A] (H-[dNMeL]T[X4]LP[NMeY](Me); ester 2-C), the “Cytotoxicity L1210 IC50” value in data set [1] worked out at 0.3 µg/mL. This molecule also came in with a CV-1 in the data set with CV-1 monkey kidney cells of 0. Further, the “Inhibition of [3H]didemnin B binding (%)” value in data set [2] (0.001 μg/mL) was determined as 0%; in [2] (0.01 μg/mL) it was 3%; in [2] (0.1 μg/mL) it was 9%; in data set [2] (1 μg/mL), 12%. In data set [5], the “IC50 DNA” value is “inactive (1 g)”. The “VIV Protection” value with Visna virus (VIV) is on record as under 0.
As for `CC[C@H](C)[C@H]1NC(=O)[C@@H](NC(=O)[C@@H](CC(C)C)NC)[C@@H](C)OC(=O)[C@H](Cc2ccc(OC)cc2)N(C)C(=O)[C@@H]2CCCN2C(=O)[C@H](CC(C)C)NC(=O)[C@@H](C)C(=NO)[C@H](C(C)C)OC(=O)C[C@@H]1O` [[HydroxyiminoHip^2]-Didemnin A (65), [HydroxyiminoHip^2]didemnin A] (H-[dNMeL]T[X7]LP[NMeY](Me); ester 2-C), in data set [1], the “Cytotoxicity L1210 IC50” value is 0.02 µg/mL. In the data set on CV-1 monkey kidney cells, the CV-1 turned out to be 0.
Usually IC50 stands for the point on the concentration scale where inhibition reaches its midpoint. Take `CC[C@H](C)[C@H]1NC(=O)[C@@H](NC(=O)[C@@H](CC(C)C)N(C)C(=O)[C@H]2CCCN2C(=O)C(C)=O)[C@@H](C)OC(=O)[C@H](Cc2ccc(OC)cc2)N(C)C(=O)[C@@H]2CCCN2C(=O)[C@H](CC(C)C)NC(=O)[C@@H](C)C(=O)[C@H](C(C)C)OC(=O)C[C@@H]1O` [Pyruv-D-Pro-DA, Pyruv-D-Pro Didemnin A] (Pyruvoyl-[dP][dNMeL]T[X1]LP[NMeY](Me); ester 3-C): in the data set with L1210 cells, the IC50 was found to be 0.006 µg/mL (≈ 5.4 nM) and the “cytotoxicity compared with DDB” value is reported as “only partially active”. In the data set with VSV, the VSV entry is listed as “+ ++”.
